In one test the target is T1, PTPN21 (PTPD1) (Homo sapiens, UniProt Q16825).
T1 construct: 839-1174
T1 sequence (Q16825 1-1174): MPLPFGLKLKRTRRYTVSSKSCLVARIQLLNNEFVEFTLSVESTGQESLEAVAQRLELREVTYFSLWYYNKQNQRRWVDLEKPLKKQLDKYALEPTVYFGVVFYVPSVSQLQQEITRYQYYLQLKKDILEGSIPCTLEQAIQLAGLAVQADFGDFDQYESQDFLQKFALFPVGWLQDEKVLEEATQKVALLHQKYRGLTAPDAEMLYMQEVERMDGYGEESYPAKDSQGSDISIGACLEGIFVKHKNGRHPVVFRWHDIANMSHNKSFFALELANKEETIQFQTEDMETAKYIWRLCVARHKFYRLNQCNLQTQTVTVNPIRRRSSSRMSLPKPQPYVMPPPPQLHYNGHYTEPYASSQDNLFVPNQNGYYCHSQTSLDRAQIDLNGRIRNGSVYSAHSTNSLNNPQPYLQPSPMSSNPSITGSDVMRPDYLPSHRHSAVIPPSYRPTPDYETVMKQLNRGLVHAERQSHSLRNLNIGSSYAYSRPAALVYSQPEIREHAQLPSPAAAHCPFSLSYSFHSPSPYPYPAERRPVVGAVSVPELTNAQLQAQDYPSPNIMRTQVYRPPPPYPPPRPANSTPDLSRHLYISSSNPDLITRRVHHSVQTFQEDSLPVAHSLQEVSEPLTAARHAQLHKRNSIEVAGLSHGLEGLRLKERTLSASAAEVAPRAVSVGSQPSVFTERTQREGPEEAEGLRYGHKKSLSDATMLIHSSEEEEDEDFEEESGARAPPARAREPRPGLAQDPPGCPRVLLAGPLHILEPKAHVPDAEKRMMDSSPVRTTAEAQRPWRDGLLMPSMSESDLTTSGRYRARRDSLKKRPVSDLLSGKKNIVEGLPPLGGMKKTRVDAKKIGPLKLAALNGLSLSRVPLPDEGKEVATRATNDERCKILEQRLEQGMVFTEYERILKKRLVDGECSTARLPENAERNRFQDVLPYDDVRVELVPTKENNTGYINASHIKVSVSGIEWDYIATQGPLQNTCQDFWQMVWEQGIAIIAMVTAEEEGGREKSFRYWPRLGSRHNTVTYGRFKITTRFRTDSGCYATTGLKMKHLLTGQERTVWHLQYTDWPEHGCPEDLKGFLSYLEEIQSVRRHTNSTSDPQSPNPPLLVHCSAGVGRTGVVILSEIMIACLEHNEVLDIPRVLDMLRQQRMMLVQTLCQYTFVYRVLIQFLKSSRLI
The test can be described thus: biochemical. Also on record: Fluorogenic phosphatase assay, DiFMUP hydrolysis by recombinant PTPs, initial velocity, Ex/Em 355/460 nm. The following applies: read-out: Inhibition by 20 µM polyphyllin D (%).

The target of another test is T2, PTPN22 (LYP) (Homo sapiens, UniProt Q9Y2R2).
T2 construct: 1-326
T2 sequence (Q9Y2R2 1-807): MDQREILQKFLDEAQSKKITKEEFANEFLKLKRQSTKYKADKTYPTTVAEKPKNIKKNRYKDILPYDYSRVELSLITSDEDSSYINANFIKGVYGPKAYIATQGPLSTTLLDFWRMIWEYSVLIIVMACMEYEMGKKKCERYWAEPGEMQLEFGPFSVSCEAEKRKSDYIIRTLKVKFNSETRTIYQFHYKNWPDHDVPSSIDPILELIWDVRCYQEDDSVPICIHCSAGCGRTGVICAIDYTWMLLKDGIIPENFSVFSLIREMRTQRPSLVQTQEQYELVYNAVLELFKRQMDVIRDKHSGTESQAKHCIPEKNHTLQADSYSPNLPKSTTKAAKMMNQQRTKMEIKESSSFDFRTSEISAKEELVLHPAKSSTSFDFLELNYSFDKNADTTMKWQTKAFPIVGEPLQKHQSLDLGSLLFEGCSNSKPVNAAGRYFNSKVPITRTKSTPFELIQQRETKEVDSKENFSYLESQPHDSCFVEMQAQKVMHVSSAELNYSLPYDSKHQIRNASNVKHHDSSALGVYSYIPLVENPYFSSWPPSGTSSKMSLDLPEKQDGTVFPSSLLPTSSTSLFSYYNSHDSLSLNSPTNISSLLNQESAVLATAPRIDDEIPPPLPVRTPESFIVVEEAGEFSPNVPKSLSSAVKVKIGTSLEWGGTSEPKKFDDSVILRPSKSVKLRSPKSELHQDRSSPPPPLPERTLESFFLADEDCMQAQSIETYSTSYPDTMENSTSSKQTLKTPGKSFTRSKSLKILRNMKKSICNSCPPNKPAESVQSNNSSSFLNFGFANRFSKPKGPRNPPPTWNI
The test is described as follows: biochemical. Also on record: Fluorogenic phosphatase assay, DiFMUP hydrolysis by recombinant PTPs, initial velocity, Ex/Em 355/460 nm. The following applies: read-out: Inhibition by 20 µM polyphyllin D (%).

As usually defined, the inhibition is the share of the control response that was lost under treatment. With `C[C@@H]1CC[C@@]2(OC1)O[C@H]1C[C@H]3[C@@H]4CC=C5C[C@@H](O[C@@H]6O[C@H](CO)[C@@H](O[C@@H]7O[C@@H](CO)[C@H](O)[C@H]7O)[C@H](O)[C@H]6O[C@@H]6O[C@@H](C)[C@H](O)[C@@H](O)[C@H]6O)CC[C@]5(C)[C@H]4CC[C@]3(C)[C@H]1[C@@H]2C` [polyphyllin D], the values for the inhibition at 20 µM at PTPN21 (PTPD1) and on PTPN22 (LYP) were 20.5% and 0.1%, respectively.

Values taken from article PMC7915588, “Polyphyllin D Shows Anticancer Effect through a Selective Inhibition of Src Homology Region 2-Containing Protein Tyrosine Phosphatase-2 (SHP2)” (Molecules, 2021).
